From paper PMC10661964 (Current Drug Metabolism, 2023)
Read-outs that look alike come from different tables or passages of the source. Marks after values point to notes of the source that are not given here.

Assays:
[1] = Stability study: metabolite profiles in snap-frozen plasma and urine at early timepoints after oral [14C]-nifurtimox; assay type: in vivo, male Wistar rats; conditions: oral 2.5 mg/kg, snap-frozen
Protocol: (§1) Animals were housed in suitable metabolism cages. […] Blood cells and plasma were separated by centrifugation. Plasma was stored at ≤-15°C prior to analysis. […] All biological samples were weighed immediately. […] The remaining carcass was also wet-weighed.
The combined supernatant was analyzed directly using HPLC-LSC.

[2] = Quantification of nifurtimox and metabolites in rat plasma after a single high dose (200 mg/kg); assay type: in vivo, Wistar rats; conditions: Wistar, rat, plasma, po, 200 mg/kg
Protocol: Blood cells and plasma were then separated by centrifugation, and the plasma was stored at ≤-15°C until required. For analysis, plasma samples were thawed at room temperature and homogenized by vortex mixing. Plasma samples were pooled separately for male and female rats by combining 25 µL from each of the 4 animals for each timepoint. […] To each pooled plasma (100 µL), calibration, or control sample, 300 µL of an internal standard solution containing [^2H8]-nifurtimox (500 ng/mL) and [^2H3]-M-6 (2500 ng/mL) in acetonitrile + 0.5% formic acid in water (v/v) was added and mixed thoroughly. All samples were then centrifuged (20,000 g, 5 min) to precipitate the protein. The supernatant was analyzed using a 1290 Infinity LC system equipped with a diode array detector and an Orbitrap Q-Exactive Plus HRMS (Thermo Fisher Scientific, Bremen, Germany) with a heated electrospray ionization source. […] The mobile phase gradient was: 0 min, 0% B; 2.5 min, 0% B; 3 min, 20% B; 8 min, 45% B; 9 min, 90% B; 10.1 min, 90% B; 12 min, 0% B; 13 min, 0% B. The following HRMS parameters were used: mass range, 120-200 Da (0-2.5 min) and 230-600 Da (2.5-13 min) in full scan mode; resolution, 280,000; ion source voltage, 3500 V; capillary temperature, 300°C; source temperature, 60°C.
The calibration was based on the relative peak area as a function of concentration obtained by linear regression. […] Thus, all concentrations in μg/mL were back-calculated to nmol/mL. The PK parameters for each analyte were calculated using ToxKin software, as described above.

[3] = Quantification of nifurtimox and metabolites in human urine (LC-HRMS); assay type: in vivo; conditions: single oral 120 mg nifurtimox; for AE,urine(0–24h), fasted patients: mean of 6 fasted patients with Chagas disease; for AE,urine(0–24h), fed patients: mean of 6 fed patients with Chagas disease
Protocol: Urine samples were collected from fasted and fed patients pre-dose (0 h) and at four post-dose intervals (0-4, 4-8, 8-12, and 12-24 h) and stored frozen until required. For analysis, urine samples were thawed at room temperature and homogenized by vortex mixing. […] Equal volumes (75 µL) of an internal standard solution of [^2H8]-nifurtimox dissolved in water (10 µg/mL) were added to each urine, calibration, or control sample and mixed thoroughly. Samples from 6 patients were then analyzed using liquid chromatography-high-resolution mass spectrometry (LC-HRMS) with a 1290 Infinity LC system equipped with a diode array detector and an Orbitrap Fusion™ Lumos™ Tribrid™ HRMS (Thermo Fisher Scientific, Bremen, Germany) with a heated electrospray ionization source. For quantification, the LC conditions were as described above for analysis of rat plasma, and the HRMS parameters were: mass range, 120-600 Da in full scan mode and all ion fragmentation in positive ionization mode; resolution, 240,000; ion source voltage, 3500 V; capillary temperature, 300°C; source temperature, 60°C.
The system was calibrated using the relative peak area as a function of concentration, which was obtained by linear regression. Quantification was performed on a mass basis (μg/mL), with the final calculation for the percentage of dose excreted in urine made on a molar basis to account for the substantial differences (up to ~2.5-fold) in the molecular masses of the compounds of interest. The analytical precision for all analytes was in the range of 1.1% to 4.4%, with an accuracy of 94% to 107%. All concentrations in μg/mL were back-calculated to nmol/mL, and these concentrations were then used to calculate a total molar amount based on the urine volume collected during each interval.

[4] = Quantification of nifurtimox and metabolites in human plasma (LC-HRMS), plasma PK; assay type: in vivo; conditions: fed; for AUC(tlast-∞) (extrapolated proportion): pooled plasma of 6 patients, single oral 120 mg nifurtimox; for AUC, % of total quantified exposure: sum of AUC of nifurtimox and M-1 to M-6 = 100%, single oral 120 mg
Protocol: Plasma samples from timepoints 0, 0.25, 0.5, 0.75, 1, 1.5, 2, 2.5, 3, 4, 6, 8, 12, 15, and 24 h from 6 patients were analyzed. Blood samples were collected into lithium heparinized tubes. Blood cells and plasma were then separated by centrifugation, and the plasma was stored frozen until needed. For the analysis, plasma samples were thawed at room temperature and homogenized by vortex mixing. Equal volumes of plasma from the six patients for each timepoint were combined to a pooled volume of 200 µL. To precipitate protein, a 3-fold volume of acetonitrile/0.5% formic acid (v/v in water) was added to each pooled sample which was thoroughly mixed and then centrifuged at 20,000 g. […] For all analytes, the analytical precision ranged from 0.1% to 8.8%, and the accuracy was 95% to 108%.

[5] = Mass balance and metabolite profiling in excreta after oral [14C]-nifurtimox in intact rats; conditions: intact male Wistar rats, 2.5 mg/kg oral, up to 120 h; 2.5 mg/kg
Protocol: After an adaption period, the animals were prepared for the study. Bile duct cannulation was performed on selected animals the day before their use in experiments.
In a mass balance study (n = 5) and a PK study (n = 2 per timepoint), 2.5 mg/kg b.w. […] For i.v. administration, 2.5 mg/kg b.w. […] In an additional stability study, male Wistar rats (n = 3 per timepoint) were administered 2.5 mg/kg b.w. […] The total radioactivity concentration in the dosage form was confirmed by liquid scintillation counting (LSC).
Animals were housed in suitable metabolism cages. Blood was collected from separate rats at 0.25, 0.5, 1, 1.5, 2, 3, 5, and 8 h post-dose and stored in lithium heparinized tubes. Blood cells and plasma were separated by centrifugation. Plasma was stored at ≤-15°C prior to analysis. […] At the end of the study, the cages were rinsed with water, and samples were collected. All biological samples were weighed immediately. Feces samples were homogenized with water to obtain a uniform radioactivity distribution. All samples were stored deep-frozen at ≤-15/-70°C before further processing. During the necropsy, selected organs and tissues were collected and wet-weighed. The remaining carcass was also wet-weighed. The carcass and all tissues were homogenized and stored at room temperature prior to processing for analysis. In the stability study, blood and urine were collected at 0.25 and 0.5 h post-dose. Plasma and urine were immediately frozen in liquid nitrogen and stored at -80°C to prevent degradation. The total radioactivity in samples and tissues was determined by LSC after appropriate sample preparation.
Aliquots of individual urine or bile samples were pooled separately for each time interval by equal volume and analyzed using HPLC-LSC. Aliquots of individual feces samples were pooled separately for each time interval, ensuring that each aliquot contained the same amount of radioactivity. The pooled samples were extracted twice with a mixture of acetonitrile/water (80:20 v/v, 2 x 0.5 mL). The resulting suspensions were centrifuged (20,000 g, 5 min), and the supernatants were then combined for each time interval, concentrated, and subjected to HPLC-LSC.
The amount of total radioactivity in urine, feces, bile, and tissues was determined by multiplying the volume or weight of the samples by the respective total radioactivity concentration. The amount of radioactivity recovered in the excreta (AE), cage wash, and tissues was compared with the administered radioactive dose to establish the radioactive balance. Cumulative excretion was calculated as the sum of the excretion for each collection interval. Arithmetic means and coefficients of variation (CV) were calculated for these percentages. During metabolite profiling, the concentration or amount of each analyte for each sample and timepoint or interval was calculated by multiplying the total radioactivity concentration or amount excreted of each sample with the percent area of each analyte obtained after HPLC-LSC separation.

[6] = Plasma PK of total radioactivity, [14C]-nifurtimox and metabolites after oral dosing (HPLC-LSC); assay type: in vivo; conditions: male Wistar rats; for %AUC(0-8) (relative to total radioactivity AUC(0-8)): oral 2.5 mg/kg, M-2+M-3, M-4, M-5 are estimates based on AUC(0-tn); for half-life / Tmax: rat; for half-life: plasma, interval up to 8 h, read-out: t½ (converted)
Protocol: as §1
Aliquots of individual plasma samples were pooled separately for each timepoint by equal volume. For protein precipitation, pooled plasma was treated with a three-fold volume of acetonitrile. Samples were homogenized and precipitated by centrifugation (20,000 g, 5 min). Samples were concentrated and analyzed using high-performance liquid chromatography (HPLC) with off-line radioactivity detection by LSC (HPLC-LSC).

[7] = female, read-out: AUC(0–24), female animals
[8] = female, read-out: AUC, female animals
[9] = female, read-out: Cmax, female animals
[10] = female, read-out: tmax, female animals
[11] = female, read-out: t½, female animals (converted)
[12] = male, read-out: AUC(0–24), male animals
[13] = male, read-out: AUC, male animals
[14] = male, read-out: Cmax, male animals
[15] = male, read-out: tmax, male animals
[16] = male, read-out: t½, male animals (converted)
[17] = single oral 2.5 mg/kg [14C]-nifurtimox, pooled plasma
[18] = single oral 2.5 mg/kg [14C]-nifurtimox

AUC(0-t) [2, 7] [µM·h] | AUC [2, 8] [µM·h] | Cmax [2, 9] [nM] | Tmax [2, 10] [h] | half-life [2, 11] [min] | AUC(0-t) [2, 12] [µM·h] | AUC [2, 13] [µM·h] | Cmax [2, 14] [nM] | Tmax [2, 15] [h] | half-life [2, 16] [min] | AUC(tlast-∞) (extrapolated proportion) [4] [%] | AUC, % of total quantified exposure [4] | component excreted in feces, oral dosing [5] | AUC [6, 17] [µg-eq*h/L] | AUC(0-tn) [6, 17] [µg-eq*h/L] | Cmax [6, 17] [µg-eq/L] | tn (time of last quantifiable concentration) [6, 17] [h] | half-life [6, 18] [min] | SMILES | AE,urine(0–24h), fasted patients [3] | AE,urine(0–24h), fed patients [3] | other results
36.7 | 44.2 | 2050 | 8 | 276 | 28.2 | 46.6 | 1390 | 24 | 252 | 7.6 | 1.8% | 1.5 % of the administered dose | 767 | 715 | 138 | 8 | 81.6 | CC1CS(=O)(=O)CCN1/N=C/C(=O)CCC#N (stereo not drawn) [M-1] | 3.2 % of dose | 2.0 % of dose | share of sample radioactivity in plasma ([1]; 0.25 h post-dose): 1.4 % of sample radioactivity; share of sample radioactivity in plasma ([1]; 0.5 h post-dose): 2.3 % of sample radioactivity; %AUC(0-8) (relative to total radioactivity AUC(0-8)) [6]: 16.1%; AUC(0-8) [6, 17]: 715 µg-eq*h/L; Tmax [6, 17]: 3 h
3.54 | 3.7 | 547 | 1 | 348 | 3.64 | 10.1 | 255 | 1 | 2380 | 49.2 | 1.2^a % | 3.6 % of the administered dose |  |  |  |  |  | CC1CS(=O)(=O)CCN1/N=C/C(=O)CCC(=O)O (stereo not drawn) [M-3] | 0.06 % of dose | 0.15 % of dose | 
3.22 | 3.63 | 447 | 2 | 510 | 3.31 | 13.4 | 220 | 2 | 3800 | 7.8 | 1.4% |  |  |  |  |  |  | CC1CS(=O)(=O)CCN1/N=C/C(CCC(=O)O)=N\O (stereo not drawn) [M-2] | 1.0 % of dose | 2.4 % of dose | 
1.42 | 2.43 | 186 | 3 | 1520 | 4.64 | 8.02 | 328 | 3 | 492 | 11.7 | 0.5% |  | 177 | 102 | 32.1 | 5 | 226 | CC(=O)NC(CSc1ccc(=O)n(N2CCS(=O)(=O)CC2C)c1)C(=O)O (stereo not drawn) [M-5] | 3.4 % of dose | 6.6 % of dose | %AUC(0-8) (relative to total radioactivity AUC(0-8)) ([6]; 2.5 mg/kg): 2.30^c %; Tmax [6, 17]: 1.5 h
